For 14 compounds, IC50 results are on record in ChEMBL document CHEMBL1134595, “Exploration of novel aryl binding sites of farnesyltransferase using molecular modeling and benzophenone-based farnesyltransferase inhibitors” (J Med Chem, 2001).

The target in this assay is T1, Farnesyltransferase (Saccharomyces cerevisiae S288c, UniProt P22007+P29703).
T1 sequence (P29703 whole entry): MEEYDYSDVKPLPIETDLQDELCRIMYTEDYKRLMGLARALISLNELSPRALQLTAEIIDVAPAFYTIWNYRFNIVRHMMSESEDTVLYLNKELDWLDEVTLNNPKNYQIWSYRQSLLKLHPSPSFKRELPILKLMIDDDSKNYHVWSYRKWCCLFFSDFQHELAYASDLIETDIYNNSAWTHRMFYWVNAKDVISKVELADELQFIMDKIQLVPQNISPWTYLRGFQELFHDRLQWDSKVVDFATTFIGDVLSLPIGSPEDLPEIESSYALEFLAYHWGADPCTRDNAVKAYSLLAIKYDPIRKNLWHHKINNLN
T1 sequence (P22007 whole entry): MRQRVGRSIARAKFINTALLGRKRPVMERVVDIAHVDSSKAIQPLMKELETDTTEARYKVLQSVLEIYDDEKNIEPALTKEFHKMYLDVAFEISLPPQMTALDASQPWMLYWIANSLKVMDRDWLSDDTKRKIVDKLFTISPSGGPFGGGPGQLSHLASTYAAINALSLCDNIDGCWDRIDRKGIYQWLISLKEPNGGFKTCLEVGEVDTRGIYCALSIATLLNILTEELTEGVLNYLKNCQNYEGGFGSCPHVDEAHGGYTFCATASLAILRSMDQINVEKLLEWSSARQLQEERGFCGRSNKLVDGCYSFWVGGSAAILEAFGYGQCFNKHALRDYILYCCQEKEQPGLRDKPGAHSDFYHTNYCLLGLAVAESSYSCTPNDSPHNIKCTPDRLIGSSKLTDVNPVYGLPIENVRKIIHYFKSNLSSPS
The assay is described as follows: Inhibitory activity against yeast farnesyltransferase. It is filed as protein-complex assay.
Consider `Cc1ccc(CC(=O)Nc2ccc(NC(=O)CCCCCc3ccccc3)cc2C(=O)c2ccccc2)cc1`, for which the IC50 (commonly the concentration needed to halve the response being measured) was determined as 1100 nM.

For the compound `Cc1ccc(CC(=O)Nc2ccc(NC(=O)Cc3ccccc3)cc2C(=O)c2ccccc2)cc1`, the midpoint of inhibition, the IC50, lay at 2000 nM.

In the case of `CCC(C)[C@@H](CN(CC(=O)N[C@@H](CCSC)C(=O)O)Cc1cccc2ccccc12)NC(=O)CC1CN(Cc2ccc(C#N)cc2)C=N1` (some centres undefined), the half-maximal inhibitory concentration (IC50) was found to be 12 nM. Compared with the last compound, the IC50 is about 170-fold lower.

As to `Cc1ccc(CC(=O)Nc2ccc(NC(=O)c3ccccc3)cc2C(=O)c2ccccc2)cc1`, the IC50 was found to be 6000 nM. This IC50 lies about 500-fold higher than the previous one.

The compound `Cc1ccc(CC(=O)Nc2ccc(NC(=O)CCCCc3ccccc3)cc2C(=O)c2ccccc2)cc1` came in with an IC50 of 390 nM. This IC50 lies about 15-fold lower than the previous one.

Compound `Cc1ccc(CC(=O)Nc2ccc(NC(=O)CCCc3ccccc3)cc2C(=O)c2ccccc2)cc1` displayed an IC50 of 530 nM. The IC50 values of the last two compounds are within 1.5-fold of each other.

Compound `CSCC[C@H](NC(=O)c1ccc(CN(Cc2ccccc2)c2cccnc2)cc1-c1ccccc1C)C(=O)O` showed an IC50 of 0.1 nM.

On to `CSCC[C@H](NC(=O)c1ccc(COc2cccnc2)cc1-c1ccccc1C)C(=O)O`, for which the IC50 came out at 0.4 nM. Compared with the last compound, the IC50 is about 4-fold higher.

The compound `Cc1ccc(CC(=O)Nc2ccc(NC(=O)/C=C/c3csc(-c4ccc([N+](=O)[O-])cc4)n3)cc2C(=O)c2ccccc2)cc1` showed an IC50 of 455 nM.

`CCC(C)[C@@H](CN(CC(=O)N[C@@H](CCSC)C(=O)O)Cc1cccc2ccccc12)NC(=O)CSCc1ccc(C#N)cc1` (some centres undefined) registered an IC50 of 5.4 nM. Compared with the last compound, the IC50 is about 84-fold lower.

The compound `CSCC[C@H](NC(=O)c1ccc(COCc2ccc(-c3ccccc3)o2)cc1-c1ccccc1)C(=O)O` registered an IC50 of 6 nM.

On to `Cc1ccc(CC(=O)Nc2ccc(NC(=O)/C=C/c3ccc(-c4ccc(Br)cc4)o3)cc2C(=O)c2ccccc2)cc1`, for which the 50% inhibitory concentration (IC50) is 925 nM. Against the preceding compound, the IC50 is about 150-fold higher.

`Cc1ccc(CC(=O)Nc2ccc(NC(=O)/C=C/c3ccc(-c4ccc(Cl)cc4)o3)cc2C(=O)c2ccccc2)cc1`: inhibition was half-maximal at 6300 nM (IC50).

Take `Cc1ccc(CC(=O)Nc2ccc(NC(=O)CCc3ccccc3)cc2C(=O)c2ccccc2)cc1`: inhibition was half-maximal at 2000 nM (IC50). Against the preceding compound, the IC50 is about 3.1-fold lower.
